Measured values: US9233979B2, “Compounds that are ERK inhibitors” (Merck Sharp & Dohme Corp., priority 2012, dated 2016)

Biological target: phosphorylated active hERK2 enzyme (Homo sapiens (Human), UniProt P28482)
Experiment: Active Human ERK2 (hERK2) Activity Assay (IMAP-FP)
Format: biochemical
Settings: Table 6, 0.5 nM hERK2, 30 μM ATP, 10 point titration, read-out: AERK2 IC50
Description: Assays Active Human ERK2 (hERK2) Activity Assay:
Activated ERK2 activity was determined in an IMAP-FP assay (Molecular Devices). […] The final reaction in each well of 25 μL consists of 0.5 nM hERK2, 900 nM unlabeled peptide, 80 nM labeled-peptide, and 30 μM ATP. Phosphorylation reactions were allowed to proceed for 60 minutes and were immediately quenched by the addition of 60 μL IMAP detection beads (1:1000 dilutions) in IMAP binding buffer (Molecular Devices) with 24 mM NaCl. Plates were read on EnVision reader after 60 minutes binding equilibration using Fluorescence Polarization protocol (Perkin Elmer).

Sequence of phosphorylated active hERK2 enzyme (P28482 whole entry): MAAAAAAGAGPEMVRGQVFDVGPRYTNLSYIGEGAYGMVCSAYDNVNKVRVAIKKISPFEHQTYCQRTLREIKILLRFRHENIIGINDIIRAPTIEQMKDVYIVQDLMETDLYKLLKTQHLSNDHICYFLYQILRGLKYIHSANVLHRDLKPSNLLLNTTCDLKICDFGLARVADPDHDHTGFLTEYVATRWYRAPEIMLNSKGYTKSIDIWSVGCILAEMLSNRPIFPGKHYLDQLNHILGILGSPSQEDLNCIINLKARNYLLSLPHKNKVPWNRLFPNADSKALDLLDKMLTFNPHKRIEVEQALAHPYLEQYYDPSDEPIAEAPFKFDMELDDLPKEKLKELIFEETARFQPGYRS

SMILES | IC50
COCC1CN(c2n[nH]c3cc(NC(=O)N[C@H](C)c4ccccc4)ncc23)C1 [Example 81, 1-{3-[3-(methoxy-methyl)azetidin-1-yl]-1H-pyrazolo[4,3-c]-pyridin-6-yl}-3-[(1R)-1-phenylethyl]-urea] | 8.5 nM
COCC1CN(c2n[nH]c3cc(NC(=O)N[C@H](COC)c4ccccc4)ncc23)C1 [Example 82, 1-{3-[3-(methoxy-methyl)azetidin-1-yl]-1H-pyrazolo[4,3-c]-pyridin-6-yl}-3-[(1S)-2-methoxy-1-phenylethyl]urea] | 3.7 nM
C[C@@H](NC(=O)Nc1cc2[nH]nc(N3CC(CO)C3)c2cn1)c1ccccc1 [Example 83, 1-{3-[3-(hydroxyl-methyl)azetidin-1-yl]-1H-pyrazolo[4,3-c]-pyridin-6-yl}-3-[(1R)-1-phenylethyl]-urea] | 2.7 nM
C[C@@H](NC(=O)Nc1cc2[nH]nc(N[C@@H]3COC[C@@H]3F)c2cn1)c1ccccc1 [Example 84, 1-(3-{[(3R,4R)-4-fluorotetrahydrofuran-3-yl]amino}-1H-pyrazolo[4,3-c]-pyridin-6-yl)-3-[(1R)-1-phenylethyl]urea] | 4.4 nM
C[C@@H](NC(=O)Nc1cc2[nH]nc(N[C@H]3COC[C@H]3F)c2cn1)c1ccccc1 [Example 85, 1-(3-{[(3S,4S)-4-fluorotetrahydrofuran-3-yl]amino}-1H-pyrazolo[4,3-c]-pyridin-6-yl)-3-[(1R)-1-phenylethyl]urea] | 0.8 nM
C[C@H](Nc1n[nH]c2cc(NC(=O)N[C@H](C)c3ccccc3)ncc12)c1ccccn1 [Example 86, 1-[(1R)-1-phenylethyl]-3-(3-{[(1S)-1-pyridin-2-ylethyl]amino}-1H-pyrazolo[4,3-c]-pyridin-6-yl)urea] | 4.7 nM
C[C@@H](NC(=O)Nc1cc2[nH]nc(N[C@H](C)c3ccccn3)c2cn1)c1ccccc1 [Example 87, 1-[(1R)-1-phenylethyl]-3-(3-{[(1R)-1-pyridin-2-ylethyl]amino}-1H-pyrazolo[4,3-c]-pyridin-6-yl)urea] | 13.4 nM
C[C@@H](NC(=O)Nc1cc2[nH]nc(N[C@@H]3COC[C@H]3F)c2cn1)c1ccccc1 [Example 88, 1-(3-{[(3R,4S)-4-fluorotetrahydrofuran-3-yl]amino}-1H-pyrazolo[4,3-c]-pyridin-6-yl)-3-[(1R)-1-phenylethyl]urea] | 3.6 nM
C[C@@H](NC(=O)Nc1cc2[nH]nc(N3CCC4(CC3)COC4)c2cn1)c1ccccc1 [Example 89, 1-[3-(2-oxa-7-azaspiro[3.5]non-7-yl)-1H-pyrazolo[4,3-c]pyridin-6-yl]-3-[(1R)-1-phenylethyl]-urea] | 9.1 nM
C[C@@H](NC(=O)Nc1cc2[nH]nc(N3CC[C@@H]3C)c2cn1)c1ccccc1 [Example 90, 1-{3-[(2S)-2-methylazetidin-1-yl]-1H-pyrazolo[4,3-c]-pyridin-6-yl}-3-[(1R)-1-phenylethyl]-urea] | 14.9 nM
C[C@@H]1CCN1c1n[nH]c2cc(NC(=O)N[C@H](C)c3ccccc3)ncc12 [Example 91, 1-{3-[(2R)-2-methylazetidin-1-yl]-1H-pyrazolo[4,3-c]-pyridin-6-yl}-3-[(1R)-1-phenylethyl]-urea] | 52 nM
C[C@@H](NC(=O)Nc1cc2[nH]nc(N3CC(C)(O)C3)c2cn1)c1ccccc1 [Example 92, 1-[3-(3-hydroxy-3-methylazetidin-1-yl)-1H-pyrazolo[4,3-c]-pyridin-6-yl]-3-[(1R)-1-phenylethyl]urea] | 27.3 nM
C[C@@H](NC(=O)Nc1cc2[nH]nc(N3CC(C#N)C3)c2cn1)c1ccccc1 [Example 93, 1-[3-(3-cyanoazetidin-1-yl)-1H-pyrazolo[4,3-c]-pyridin-6-yl]-3-[(1R)-1-phenylethyl]urea] | 9.9 nM
C[C@@H](NC(=O)Nc1cc2[nH]nc(N3CC(C(C)(C)O)C3)c2cn1)c1ccccc1 [Example 94, 1-{3-[3-(1-hydroxy-1-methylethyl)-azetidin-1-yl]-1H-pyrazolo[4,3-c]-pyridin-6-yl}-3-[(1R)-1-phenylethyl]-urea] | 25.4 nM
C[C@@H](O)[C@@H](NC(=O)Nc1cc2[nH]nc(N3CCOCC3)c2cn1)c1ccc(F)cc1 [Example 97, 1-[(1S,2R)-1-(4-fluorophenyl)-2-hydroxypropyl]-3-(3-morpholin-4-yl-1H-pyrazolo[4,3-c]-pyridin-6-yl)urea] | 0.2 nM
C[C@H](O)[C@@H](NC(=O)Nc1cc2[nH]nc(N3CCOCC3)c2cn1)c1ccc(F)cc1 [Example 98, 1-[(1S,2S)-1-(4-fluorophenyl)-2-hydroxypropyl]-3-(3-morpholin-4-yl-1H-pyrazolo[4,3-c]-pyridin-6-yl)urea] | 0.2 nM

SMILES | IC50
CC(C)(O)[C@@H](NC(=O)Nc1cc2[nH]nc(N3CCOC(C(F)(F)F)C3)c2cn1)c1ccccc1 (stereo partly drawn) [Example 99, 1-[(1S)-2-hydroxy-2-methyl-1-phenylpropyl]-3-{3-[2-(trifluoromethyl)-morpholin-4-yl]-1H-pyrazolo[4,3-c]-pyridin-6-yl}urea] | 0.6 nM
CC(C)(O)[C@@H](NC(=O)Nc1cc2[nH]nc(N3CCC3)c2cn1)c1ccc(F)cc1 [Example 100, 1-(3-azetidin-1-yl-1H-pyrazolo[4,3-c]-pyridin-6-yl)-3-[(1S)-1-(4-fluorophenyl)-2-hydroxy-2-methylpropyl]urea] | 1.1 nM
CC(C)(O)[C@@H](NC(=O)Nc1cc2[nH]nc(N3CCC3)c2c(CO)n1)c1ccc(F)cc1 [Example 101, 1-[3-azetidin-1-yl-4-(hydroxymethyl)-1H-pyrazolo[4,3-c]-pyridin-6-yl]-3-[(1S)-1-(4-fluorophenyl)-2-hydroxy-2-methylpropyl]urea] | 0.9 nM
C[C@H]1CN(c2n[nH]c3cc(NC(=O)N[C@@H](c4ccccc4)C(C)(C)O)ncc23)C[C@H](C(F)(F)F)O1 [Example 102, 1-[(1S)-2-hydroxy-2-methyl-1-phenylpropyl]-3-{3-[(2S,6R)-2-methyl-6-(trifluoromethyl)-morpholin-4-yl]-1H-pyrazolo[4,3-c]-pyridin-6-yl}urea] | 2.7 nM
C[C@@H]1CN(c2n[nH]c3cc(NC(=O)N[C@@H](c4ccccc4)C(C)(C)O)ncc23)C[C@H](C(F)(F)F)O1 [Example 103, 1-[(1S)-2-hydroxy-2-methyl-1-phenylpropyl]-3-{3-[(2R,6R)-2-methyl-6-(trifluoromethyl)-morpholin-4-yl]-1H-pyrazolo[4,3-c]-pyridin-6-yl}urea] | 1.1 nM
CC(C)(O)[C@@H](NC(=O)Nc1cc2[nH]nc(N3CCC3)c2cn1)c1ccccc1 [Example 104, 1-(3-azetidin-1-yl-1H-pyrazolo[4,3-c]pyridin-6-yl)-3-[(1S)-2-hydroxy-2-methyl-1-phenylpropyl]urea] | 1.6 nM
C[C@@H](O)[C@@H](NC(=O)Nc1cc2[nH]nc(N3CCC3)c2cn1)c1ccc(F)cc1 [Example 105, 1-(3-azetidin-1-yl-1H-pyrazolo[4,3-c]pyridin-6-yl)-3-[(1S,2R)-1-(4-fluorophenyl)-2-hydroxypropyl]urea] | 2.8 nM
Cc1nc(NC(=O)N[C@@H](c2ccc(F)cc2)[C@@H](C)O)cc2[nH]nc(N3CCOCC3)c12 [Example 106, 1-((1S,2R)-1-(4-Fluorophenyl)-2-hydroxypropyl)-3-(4-methyl-3-morpholino-1H-pyrazolo[4,3-c]pyridin-6-yl)urea] | 0.5 nM
Cc1nc(NC(=O)N[C@@H](c2ccccc2)C(C)(C)O)cc2[nH]nc(N3CCOCC3)c12 [Example 107, 1-[(1S)-2-hydroxy-2-methyl-1-phenylpropyl]-3-(4-methyl-3-morpholin-4-yl-1H-pyrazolo[4,3-c]-pyridin-6-yl)urea] | 0.3 nM
C[C@@H](O)[C@@H](NC(=O)Nc1cc2[nH]nc(N3CCOCC3)c2c(CO)n1)c1ccc(F)cc1 [Example 108, 1-[(1S,2R)-1-(4-Fluorophenyl)-2-hydroxypropyl]-3-[4-(hydroxymethyl)-3-morpholin-4-yl-1H-pyrazolo[4,3-c]pyridin-6-yl]urea] | 0.4 nM
CC(C)(O)[C@@H](NC(=O)Nc1cc2[nH]nc(N3CCOCC3)c2c(CO)n1)c1ccccc1 [Example 109, 1-[4-(hydroxymethyl)-3-morpholin-4-yl-1H-pyrazolo[4,3-c]-pyridin-6-yl]-3-[(1S)-2-hydroxy-2-methyl-1-phenylpropyl]urea] | 0.3 nM
Cc1nc(NC(=O)N[C@@H](c2ccc(F)cc2)C(C)(C)O)cc2[nH]nc(N3CCC3)c12 [Example 110, 1-(3-azetidin-1-yl-4-methyl-1H-pyrazolo[4,3-c]-pyridin-6-yl)-3-[(1S)-1-(4-fluorophenyl)-2-hydroxy-2-methylpropyl]urea] | 1.3 nM
C[C@@H](O)[C@@H](NC(=O)Nc1cc2[nH]nc(N3CC4CC3CO4)c2cn1)c1ccccc1 (stereo partly drawn) [Example 111, 1-[(1S,2R)-2-hydroxy-1-phenylpropyl]-3-[3-(2-oxa-5-azabicyclo[2.2.1]-hept-5-yl)-1H-pyrazolo[4,3-c]-pyridin-6-yl]urea] | 0.5 nM
[2H]C([2H])([2H])C([2H])([2H])Nc1n[nH]c2cc(NC(=O)N[C@H](C)c3ccccc3)ncc12 [Example 113, (R)-1-(3-((ethyl-D5)amino)-1H-pyrazolo[4,3-c]-pyridin-6-yl)-3-(1-phenylethyl)urea] | 1.6 nM
[2H]C([2H])([2H])C(=O)Nc1n[nH]c2cc(NC(=O)N[C@H](C)c3ccccc3)ncc12 [Example 115, (R)-N-(6-(3-(1-phenylethyl)ureido)-1H-pyrazolo[4,3-c]pyridin-3-yl)(acetamide-D3)] | 0.8 nM
C[C@@H](NC(=O)Nc1cc2[nH]nc(Nc3ccc(F)cc3)c2cn1)c1ccccc1 [Example 116, 1-{3-[(4-fluorophenyl)-amino]-1H-pyrazolo[4,3-c]pyridin-6-yl}-3-[(1R)-1-phenylethyl]urea] | 94.2 nM
